# Reference: PubChem BioAssay (NCI)
#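 Five concentrations, 48 hours, 96-well plates. TGI: total growth inhibition.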
# What was measured:
# Experiment in all cases: NCI anticancer screen, dose series, 48 h
# 786-0 renal = test system: 786-0 renal
# DU-145 prostate = test system: DU-145 prostate
# HCT-15 colon = test system: HCT-15 colon
# IGROV1 ovarian = test system: IGROV1 ovarian
# LOX IMVI melanoma = test system: LOX IMVI melanoma
# OVCAR-3 ovarian = test system: OVCAR-3 ovarian
# RPMI-8226 leukemia = test system: RPMI-8226 leukemia
# SW-620 colon = test system: SW-620 colon
# TK-10 renal = test system: TK-10 renal
SMILES,TGI (786-0 renal) [µM],TGI (DU-145 prostate) [µM],TGI (HCT-15 colon) [µM],TGI (IGROV1 ovarian) [µM],TGI (LOX IMVI melanoma) [µM],TGI (OVCAR-3 ovarian) [µM],TGI (RPMI-8226 leukemia) [µM],TGI (SW-620 colon) [µM],TGI (TK-10 renal) [µM]
Cc1c2c(c(O)c3c(O)cccc13)C(=O)C1(O)C(O)=C(C(=O)NCNc3ccc(C(N)=O)cn3)C(=O)C(N(C)C)C1C2 (centres undefined),> 100,20,8.56,6.27,> 100,6.84,7.59,42,49.2
O=C1c2ccccc2-c2nnc3c(c21)-c1ccccc1C3,> 100,> 100,> 100,,,,> 100,> 100,
COC1CC(COCc2ccccc2)CC(OC)O1 (centres undefined),> 100,> 100,> 100,,> 100,> 100,> 100,> 100,> 100
CC[C@@]1(C)CCC2c3ccc(O)cc3CC[C@H]2C1C (some centres undefined),29.8,30.4,31.4,38.1,31.9,37,39.5,32.4,33.3
CCOC(=O)C1=NN(c2ccc([N+](=O)[O-])cc2)[C@@]2(C)C[C@]3(c4ccccc4)N(c4ccc([N+](=O)[O-])cc4)N=C(C(=O)OCC)N3c3ccccc3N12,> 100,> 100,> 100,> 100,> 100,> 100,> 100,> 100,> 100
CC(=O)NC1(c2cc3ccccc3s2)CCCCCC1,> 100,> 100,> 100,> 100,> 100,62.8,,> 100,> 100
Cc1cccc2c1c(=O)c1c(O)c3c(cc1n2C)OC(C)(C)C=C3,> 10,> 10,> 10,> 10,> 10,> 10,> 10,> 10,> 10
O=C1CSC(c2ccccc2[N+](=O)[O-])N1c1ccc(-c2ccc(-n3c(-c4ccccc4)nc4ccccc4c3=O)cc2)cc1 (centres undefined),> 100,> 100,> 100,> 100,> 100,> 100,> 100,> 100,> 100
COc1cc(NCCC2CCCCN2)c2ncccc2c1 (centres undefined),> 100,> 100,> 100,> 100,> 100,> 62.7,> 68.1,> 100,> 100
COC1CN(C)C(=Nc2cccc3ccccc23)S1 (centres undefined),> 10,> 10,> 10,> 10,> 10,,> 10,> 10,> 10
COc1ccc(C2SCC(=O)N2NC(=O)c2ccc(NC(C)=O)cc2)c(OC)c1 (centres undefined),> 100,> 100,> 100,> 100,,> 100,> 100,> 100,> 100
N#Cc1c(-c2ccc(Cl)cc2)[nH]c(=O)n(C2OC(CO)C(O)C(O)C2O)c1=O (centres undefined),> 100,> 100,> 100,> 100,,> 100,> 100,> 100,> 100
CC(=O)Nc1c(C)cc2c(nc3n2CCC3OC(C)=O)c1[N+](=O)[O-] (centres undefined),> 100,> 100,> 100,> 100,> 100,> 100,> 100,> 100,
N#CC(=N)c1ncn(-c2ccc(N)cc2)c1N,> 100,> 100,> 100,> 100,> 100,> 100,> 100,> 100,> 100
CC(=O)OCC1OC(n2c(-c3ccccc3)c(C(C)=O)c(-c3cccc4ccccc34)c(C#N)c2=S)C(OC(C)=O)C(OC(C)=O)C1OC(C)=O (centres undefined),> 100,> 100,> 100,> 100,> 100,> 100,,> 100,> 100
CC(=O)O[C@H]1CC[C@@]2(C)C(=CC[C@@H]3[C@@H]2CC[C@]2(C)c4c(C)nn(-c5ccccc5)c4C[C@@H]32)C1,35.9,37.2,> 100,> 100,27.6,> 100,,> 100,51
O=C(O)CCSCc1ccccc1,> 100,> 100,> 100,> 100,> 100,> 100,> 100,> 100,> 100
CC(=O)Nc1ccc2c3c(cc(O)c2c1)N(C(=O)CCCCCCC(=O)N1CC(CCl)c2c1cc(O)c1cc(NC(C)=O)ccc21)CC3CCl (centres undefined),0.0204,< 0.01,3.59,0.499,0.361,,,> 100,0.0702
CC(C)=CC(Cc1ccccc1)S(=O)(=O)c1nc2ccccc2s1 (centres undefined),33.1,31.5,49.5,62.7,11.9,29.2,35,37.2,35.8
CCOC(=O)C1(C(=O)OCC)OC(C)=NC1(C(=O)OC)C(=O)OC,> 100,> 100,> 100,> 100,> 100,> 100,> 24.6,> 100,> 100
O=C(Nc1ccc2[nH]c(C(=O)N3CC(CCl)c4c3cc([N+](=O)[O-])c3ccccc43)cc2c1)Nc1ccc2[nH]c(C(=O)N3CC(CCl)c4c3cc([N+](=O)[O-])c3ccccc43)cc2c1 (centres undefined),> 100,> 100,> 100,,,> 100,> 100,,> 100
OC(c1ccc(C(F)(F)F)cc1)C(F)(F)c1nc2ccccc2o1 (centres undefined),> 100,> 100,> 100,> 100,> 100,,> 100,> 100,> 100
COC(=O)c1cc(C(=CCC[C@H]2CC[C@@]3(C)C(CCC4C3CC[C@@]3(C)C4CC[C@@H]3C(C)CCCC(C)C)C2)c2cc(Cl)c(O)c(C(=O)OC)c2)cc(Cl)c1O (some centres undefined),> 10,> 10,> 10,> 10,> 10,> 10,> 10,> 10,> 10
